Numbering of substitutions follows the chain as printed. Like-named read-outs stand apart in the source and are kept apart here.
How the values were obtained:
[1] = tested on: AR-driven transcription (ARE-Luciferase); experiment: AR-driven transcription ARE Luciferase reporter assay in CWR22Pc-R1-AD1 cells; type: cell-based, human;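 further: cells stably carrying an ARE-driven firefly luciferase reporter, with luminescence as read-out, tested in phenol red free RPMI containing 10% charcoal stripped FBS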
Procedure: 15 µL 2x Steady-Glo® reagent (Promega) was added per well and incubated 15 min in the dark before reading luminescence using an EnVision platereader. Experiments were performed in phenol red free RPMI media supplemented with 10% charcoal stripped FBS.

[2] = biological target: T1, Androgen Receptor (AR) (Homo sapiens, UniProt P10275, H875Y); experiment: CETSA HT ITDRF at 46 °C, antagonist mode in the presence of 1 nM DHT, CWR22Pc-R1-AD1 cells; type: binding; settings: for IC50 / AR target engagement (CETSA HT), 2 h, IC50: 1 nM DHT; for AR target engagement (CETSA HT), 2 h, IC50: CWR22Pc-R1-AD1 cells
T1 construct: exclusively expresses a structurally full-length AR containing a H874Y mutation; endogenous in cells; host or cells: CWR22Pc-R1-AD1
T1 sequence (P10275 1-920 H875Y): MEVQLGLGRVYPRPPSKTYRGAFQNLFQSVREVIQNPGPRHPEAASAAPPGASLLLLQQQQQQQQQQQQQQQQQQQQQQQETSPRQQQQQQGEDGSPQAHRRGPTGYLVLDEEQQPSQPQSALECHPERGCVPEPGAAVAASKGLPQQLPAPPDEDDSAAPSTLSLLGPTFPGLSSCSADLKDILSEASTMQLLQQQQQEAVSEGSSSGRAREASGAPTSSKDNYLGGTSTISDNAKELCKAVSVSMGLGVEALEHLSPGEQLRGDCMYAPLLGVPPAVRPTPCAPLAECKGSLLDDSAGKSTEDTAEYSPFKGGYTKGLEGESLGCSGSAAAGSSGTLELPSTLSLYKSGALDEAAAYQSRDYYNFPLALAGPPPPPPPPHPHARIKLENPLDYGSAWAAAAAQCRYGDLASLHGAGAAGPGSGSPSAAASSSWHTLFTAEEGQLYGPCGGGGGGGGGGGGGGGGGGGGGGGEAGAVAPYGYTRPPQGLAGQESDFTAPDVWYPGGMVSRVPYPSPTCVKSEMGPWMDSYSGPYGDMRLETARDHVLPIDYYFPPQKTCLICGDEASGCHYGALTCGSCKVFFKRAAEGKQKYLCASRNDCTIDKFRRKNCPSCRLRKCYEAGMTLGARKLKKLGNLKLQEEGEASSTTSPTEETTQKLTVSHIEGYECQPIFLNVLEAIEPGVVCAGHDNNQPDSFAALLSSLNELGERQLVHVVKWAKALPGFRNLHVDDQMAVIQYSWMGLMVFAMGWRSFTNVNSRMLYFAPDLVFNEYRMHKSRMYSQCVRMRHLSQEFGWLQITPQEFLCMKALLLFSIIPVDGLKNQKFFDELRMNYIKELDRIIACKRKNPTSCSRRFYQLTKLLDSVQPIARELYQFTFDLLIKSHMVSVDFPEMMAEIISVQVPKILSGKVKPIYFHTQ
Procedure: [sequence] experiments were performed in a plate-based, automation-compatible assay setup, as described in Supplementary Fig. S2e. […] Internal standard controls were included on each plate (Supplementary Fig. S10). […] 10 µL of cells were seeded per well of the PCR plate using a Multidrop Combi dispensor, covered with a plate lid, briefly centrifuged, and incubated under standard tissue culture conditions for 2 h or indicated timepoint. […] Cells were lysed by addition of 10 µL/well 2x SureFire Lysis Buffer using a Multidrop Combi. […] Antibody and AlphaScreen reagent, prepared as above, were added by Multidrop Combi (6 µL/well). Plates were incubated in the dark 16 h and analysed using an EnVision platereader.

[3] = biological target: T1, Androgen Receptor (AR); experiment: CETSA HT ITDRF at 46 °C, agonist mode (no exogenous DHT), CWR22Pc-R1-AD1 cells; type: binding; settings: for compound incubation time at which AR thermal stabilisation is seen: time-course
[4] = biological target: T2, Androgen Receptor (AR) (Homo sapiens, UniProt P10275, T878A); experiment: CETSA HT ITDRF at 46 °C, agonist mode, LNCaP cells; type: binding; settings: read-out: EC50 for AR thermal stabilisation (ITDRF CETSA), LNCaP cells, agonist alone
T2 construct: an alternative AR-positive prostate cancer cell line, LNCaP; endogenous in cells; host or cells: LNCaP
T2 sequence (P10275 1-920 T878A): T1 sequence (P10275 1-920 H875Y) with Y875H, T878A

[5] = tested on: total cellular AR; experiment: CETSA HT control without heat shock and without exogenous DHT (total AR); type: cell-based, human
[6] = CWR22Pc-R1-AD1 cells, 1 nM DHT, 24 h; read-out: AR-driven transcription (ARE-Luciferase), 24 h, IC50
[7] = Supplementary Table S1; 24 h, 1 nM DHT
[8] = Homo sapiens, 24 h; read-out: AR-driven transcription (ARE-Luciferase), 24 h, IC50
[9] = AR target engagement (CETSA HT), 2 h, IC50, CWR22Pc-R1-AD1 cells, 46 °C heat shock
[10] = Supplementary Table S1, 2 h, 46 °C
[11] = Homo sapiens, 24 h; read-out: ARE-Luciferase response pIC50 (converted)
[12] = 2 h compound incubation, no exogenous DHT, no 46 °C heat shock
[13] = Supplementary Table S1, 2 h, 46 °C, one technical repeat, read-out: CETSA HT response pIC50 (converted)

Structure (SMILES) | Conclusion: activity in ARE-Luciferase assay [1, 7] | IC50 [1, 8] [µM] | IC50 [2, 9] [µM] | Conclusion: activity in CETSA HT [2, 10] | IC50 [1, 11] [µM] | further results
CN(C)[C@H]1CN(C2CCc3cccc(F)c32)C[C@@H]1c1ccc(N2CCN(S(C)(=O)=O)CC2)cc1 (stereo partly drawn) [A-395] | Inactive |  |  |  |  | IC50 [1, 6]: > 30 µM
COc1ccc(/C=C/C(=O)/C=C(O)/C=C/c2ccc(OC)c(OC)c2)cc1OC [ACS-J9] | Active |  |  |  |  | IC50 [1, 6]: > 10 µM
C[C@]12CC[C@H](O)CC1=CC[C@@H]1[C@@H]2CC[C@]2(C)C(c3cccnc3)=CC[C@@H]12 [Abiraterone] | Inactive | > 30 | > 30 | Inactive |  | 
C[C@]12CCC(=O)C=C1CC[C@@H]1[C@@H]2C(=O)C[C@]2(C)C(=O)CC[C@@H]12 [Andrenosterone] |  |  |  |  |  | EC50 ([3]; agonist alone, read-out: EC50 for in-cell AR target engagement (ITDRF CETSA)): 0.0506 µM; compound incubation time at which AR thermal stabilisation is seen [3]: at least 30 minutes; compound incubation time at which AR thermal stabilisation is seen ([3]; listed as andrenosterone): 30 min; EC50 [4]: 0.0701 µM
CO[C@@H](C(=O)N1Cc2n[nH]c(NC(=O)c3ccc(N4CCN(C)CC4)cc3)c2C1)c1ccccc1 [Danusertib] | Active | 2.6 | > 30 | Inactive | 2.57 | 
CS(=O)(=O)c1ccc(-c2cnc(NCc3ccco3)n3cnnc23)cc1 [EED-226] | Inactive | > 30 | > 30 | Inactive |  | 
CCN(c1cc(-c2ccc(CN3CCOCC3)cc2)cc(C(=O)NCc2c(C)cc(C)[nH]c2=O)c1C)C1CCOCC1 [EPZ-6438] | Inactive |  | > 30 | Inactive |  | 
CN1CCN(c2ccc(C(=O)Nc3n[nH]c4ccc(Cc5cc(F)cc(F)c5)cc34)c(NC3CCOCC3)c2)CC1 [Entrectinib] | Active | 11.2 | > 30 | Inactive | 11.2 | effect on total AR (no heat shock) [5, 12]: do not reduce total AR
CO[C@H]1CNC[C@@H](OCC2CCC(F)(F)CC2)[C@@H]1Nc1ncc(-c2cncc(C)c2)c2cc(C)c(=O)[nH]c12 [GSK8814] | Inactive | > 30 | > 30 | Inactive |  | 
O=C(O)c1ccc(CN2CCC(CN[C@@H]3C[C@H]3c3ccccc3)CC2)cc1 [GSK2879522] | Inactive |  |  |  |  | IC50 [1, 6]: > 30 µM
CC[C@H](C)n1cc(C)c2c(C(=O)NCc3c(C)cc(C)[nH]c3=O)cc(-c3ccc(N4CCNCC4)nc3)cc21 [GSK-126] | Inactive |  |  |  |  | IC50 [1, 6]: > 30 µM
Cc1sc2c(c1C)C(c1ccc(Cl)cc1)=N[C@@H](CC(=O)OC(C)(C)C)c1nnc(C)n1-2 [JQ1] | Partial |  |  |  |  | IC50 [1, 6]: 0.302 µM
C[C@](O)(COc1ccc(C#N)cc1)C(=O)Nc1ccc(C#N)c(C(F)(F)F)c1 [MK-2866] |  |  |  |  |  | effect on total AR (no heat shock) [5]: do not reduce total AR; IC50 ([1]; Homo sapiens, 24 h, read-out: AR-driven transcription (ARE-Luciferase), 24 h, IC50): 0.17 µM; IC50 ([1]; Homo sapiens, 24 h, read-out: ARE-Luciferase response pIC50 (converted)): 0.17 µM; Conclusion: activity in CETSA HT [2]: Active; temporal analysis of target engagement (competition of DHT) [2]: increasing competition of DHT from AR over time
CCNC(=O)c1noc(-c2cc(C(C)C)c(O)cc2O)c1-c1ccc(CN2CCOCC2)cc1 [NVP-AUY-922] | Active | 0.089 |  | Active | 0.0891 | effect on total AR (no heat shock) [5, 12]: reduces total AR; AR target engagement (CETSA HT), 2 h, IC50 ([2]; 2 h, 46 °C heat shock): Reduces total AR; IC50 [2, 13]: 0.955 µM
O=C(Nc1ccc([N+](=O)[O-])cc1Cl)c1cc(Cl)ccc1O [Niclosamide] | Active | 0.955 |  |  | 0.955 | 
Cc1sc2c(c1C)C(c1ccc(Cl)cc1)=N[C@@H](CC(=O)Nc1ccc(O)cc1)c1nnc(C)n1-2 [OTX-015] | Partial | 0.214 | > 30 | Inactive | 0.214 | 
CC(C)c1cc(C(=O)N2Cc3ccc(CN4CCN(C)CC4)cc3C2)c(O)cc1O [Onalespib] | Active | 0.537 |  | Active | 0.537 | effect on total AR (no heat shock) [5, 12]: reduces total AR; AR target engagement (CETSA HT), 2 h, IC50 ([2]; 2 h, 46 °C heat shock): Reduces total AR; IC50 [2, 13]: 1.05 µM
C=CCNC1=C2C[C@@H](C)C[C@H](OC)[C@H](O)[C@@H](C)/C=C(\C)[C@H](OC(N)=O)[C@@H](OC)/C=C\C=C(/C)C(=O)NC(=CC1=O)C2=O [Tanespimycin] | Active | 3.2 |  |  | 3.24 | 
Cc1cc(-c2ncc(CC(=O)Nc3ccc(-c4cnccn4)cn3)cc2C)ccn1 [WNT-974] | Inactive | > 30 | > 30 | Inactive |  | 
Oc1nc(-c2ccc(C(F)(F)F)cc2)nc2c1CSCC2 [XAV-939] | Inactive | > 30 | > 30 | Inactive |  | 

— publication PMC5760633, “Determining direct binders of the Androgen Receptor using a high-throughput Cellular Thermal Shift Assay” (Scientific Reports, 2018)
